Data as given in patent publication US6762029B2, “Methods of identifying agents that modulate P2Y12 receptor activity” (Portola Pharmaceuticals, Inc., priority 1999, dated 2004).
pEC50, pIC50: −log10 of the molar value.

Experiments:
P2Y12 receptor [1] = target: T1, P2Y12 receptor (UniProt Q9H244); assay: Two-electrode voltage-clamp of Xenopus oocytes expressing P2Y12 with Kir3.1 and 3.4: agonist-stimulated potassium currents; assay type: cell-based; conditions: FIG. 1C; for pEC50: Xenopus oocytes with Kir3.1 and 3.4, currents normalized to 10 μM ADP, Hill fit
T1 construct: EC50, potassium currents in oocytes; other: Xenopus oocytes with Kir3.1 and 3.4; currents normalized to 10 μM ADP; Hill; potency compared to ADP
Procedure: (§1) Defolliculated Xenopus laevis oocytes were injected with a positive 500 clone pool (10 ng), rP2Y12 (10 pg), hP2Y12 (50 pg), Kir3.1, Kir3.4, PTX and hm2 (1 ng each) cRNAs as indicated. Three to seven days after injection, two-electrode voltage-clamp recordings were performed using a Geneclamp 500 amplifier (Axon Instruments) and a Maclab A/D converter (Maclab). Membrane potentials were clamped at −70 mV while the recording chamber was perfused at a rate of 2 ml/min with a solution containing (in mM) 70 KCl, 20 NaCl, 3 MgCl2, 5 HEPES, pH 7.4, at room temperature. The KCl was replaced with NaCl to examine responses in zero potassium. Agonists and antagonists (Roche Molecular Biochemistry or Sigma) were diluted in the recording solution. Experiments using C1330-7 included 0.1% dimethylsulfoxide to enhance its solubility in the perfusate.
(§2) FIG. 1(A). Activation of potassium-dependent currents in Xenopus oocytes expressing P2Y12 with Kir3.1 and 3.4. ADP (10 μM) was applied (short bars) in the presence or absence (long bar) of extracellular potassium (70 mM) while recording membrane currents in the whole-cell voltage clamp configuration. […] (B) ADP-selective stimulation of potassium channel-dependent currents by P2Y12 occurs via a pertussis toxin-sensitive pathway. UDP, adenosine (A), ATP-α-S or ADP (10 μM each) were sequentially applied to oocytes expressing the rat or human receptor with or without Kir3.1, 3.4 and pertussis toxin (PTX). (C) The agonist profile of P2Y12 recapitulates that observed for the Gi-coupled platelet ADP receptor. Concentration-response curves for ADP and 2MeSADP are presented. Membrane currents were normalized in each oocyte to a response obtained with 10 μM ADP. Each point represents the mean values (+/−s.d.) from five independent oocytes. The Hill equation was used to fit the response data.

hP2Y12 [2] = target: T2, hP2Y12 (Homo sapiens, UniProt Q9H244); assay: Forskolin-stimulated cAMP accumulation in CHO cells stably expressing hP2Y12; assay type: cell-based
T2 construct: expressed in transfected cells; host or cells: Xenopus laevis oocytes injected with hP2Y12 cRNA (50 pg) plus Kir3.1 and Kir3.4 cRNAs
T2 sequence (Q9H244 whole entry): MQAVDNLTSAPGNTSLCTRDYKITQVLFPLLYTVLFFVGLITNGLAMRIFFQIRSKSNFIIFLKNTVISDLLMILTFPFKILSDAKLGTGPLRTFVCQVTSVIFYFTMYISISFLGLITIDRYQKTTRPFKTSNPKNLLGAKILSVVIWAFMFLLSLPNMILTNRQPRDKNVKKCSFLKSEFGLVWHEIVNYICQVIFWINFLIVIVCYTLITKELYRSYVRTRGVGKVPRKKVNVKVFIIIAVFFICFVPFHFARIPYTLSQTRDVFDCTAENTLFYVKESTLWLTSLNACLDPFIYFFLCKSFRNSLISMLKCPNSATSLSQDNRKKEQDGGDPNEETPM
Procedure: Chinese Hamster Ovary (CHO) cells or rat 2-9 fibroblasts, which are null for Gi-linked purinergic receptors, were transfected with hP2Y12 or rP2Y12 cDNA's, respectively using FuGene reagent (Roche), and cells were cultured in the presence of G418 for 2 weeks to select for stable transfectants. For cAMP assays, stably transfected CHO cells expressing the hP2Y12 plasmid were plated in 12-well dishes. Forty-eight hours later media was removed from the cells and replaced with serum-free media containing IBMX (0.25 mM final) and incubated at 37° C. for 5 minutes. Cells were incubated for an additional 5 min with 10 μM forskolin, as well as the indicated agonists and antagonists. Pertussis toxin treatment (30 ng/ml) occurred for 20 hrs at 37° C. prior to assay. Cyclic AMP levels were determined from aliquots of cell extracts in a radioimmunoassay (Amersham Biotrak cAMP ^125I assay system).
FIG. 3(A). Receptor coupling to adenylyl cyclase was assessed as ADP-mediated (0.1-10 μM) inhibition of forskolin-stimulated (10 μM) cAMP accumulation (CON=control, normalized to 100%). (B) The effect of the specific antagonists 2MeSAMP (2-MES)(50 μM) and C1330-7 (50 μM) on repression of ADP-mediated (1 μM) forskolin-stimulated cAMP levels. (C) Effect of pertussis toxin (PTX) pretreatment on the inhibition by 10 μM ADP of forskolin-stimulated cAMP levels. Results are the mean+/−s.d. of three representative experiments performed in triplicate.

hP2Y12 [3] = target: T2, hP2Y12; assay: Two-electrode voltage-clamp of Xenopus oocytes expressing hP2Y12 with Kir3.1 and 3.4: inhibition of ADP-stimulated potassium currents; assay type: cell-based
Procedure: as §1
(§3) FIG. 2(A). […] The dot (.) indicates the start of a 15 sec application of ADP, while bars denote co-application with the antagonist. (B) 2MeSAMP and C1330-7 inhibition curves. Current responses were normalized to that elicited by ADP (500 nM) alone in each oocyte and plotted as the mean+/−s.d. Curves were fitted to the data using the Hill equation (n=5 independent oocytes for each point). (C) Selective ablation of P2Y12 but not m2 muscarinic receptor signaling by the thiol reagent pCMBS. ADP (10 μM), carbachol (1 μM), and pCMBS (1 mM) were applied sequentially to an oocyte expressing both receptors concurrently with Kir3.1 and 3.4. Bars indicate periods of drug application (10 sec).

hP2Y12 [4] = target: T2, hP2Y12; assay: [3H]2MeSADP binding to membranes of COS7 cells transiently transfected with hP2Y12 (rapid filtration); conditions: 4 C, 30 minutes
Procedure: hP2Y12 cDNA was transiently transfected into cos7 cells and crude membranes were prepared using standard procedures. Binding of 1 nM [^3H]2MeSADP at various membrane protein concentrations and in the absence and presence of various inhibitors was determined at 4 C. for 30 minutes in a rapid filtration assay (triplicates). Non-specific binding was determined with 10 uM 2MeSADP and subtracted from all data. Each experiment included membranes from untransfected cells.

rat P2Y12 = target: T3, rat P2Y12 (Rattus norvegicus, UniProt Q9EPX4); assay: Two-electrode voltage-clamp of Xenopus oocytes expressing rat P2Y12: inhibition of ADP-evoked signal; assay type: cell-based
T3 construct: expressed in transfected cells; host or cells: Xenopus laevis oocytes injected with rP2Y12 cRNA (10 pg) plus Kir3.1 and Kir3.4 cRNAs
T3 sequence (Q9EPX4 whole entry): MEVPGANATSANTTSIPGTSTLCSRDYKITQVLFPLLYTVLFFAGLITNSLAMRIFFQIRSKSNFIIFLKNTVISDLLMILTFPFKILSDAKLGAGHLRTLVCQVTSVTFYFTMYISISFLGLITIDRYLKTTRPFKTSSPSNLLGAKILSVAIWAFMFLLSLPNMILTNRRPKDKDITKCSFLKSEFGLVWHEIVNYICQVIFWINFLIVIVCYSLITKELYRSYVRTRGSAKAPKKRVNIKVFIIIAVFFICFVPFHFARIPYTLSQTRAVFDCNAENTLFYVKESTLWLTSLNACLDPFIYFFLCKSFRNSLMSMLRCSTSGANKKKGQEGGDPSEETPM
Procedure: as §1

P2Y12 receptor [5] = assay: Two-electrode voltage-clamp of Xenopus oocytes expressing P2Y12 with Kir3.1 and 3.4: agonist-stimulated potassium currents; assay type: cell-based; conditions: 10 μM each, FIG. 1B
Procedure: as §1, §2

m2 muscarinic receptor = target: T4, m2 muscarinic receptor (Homo sapiens, UniProt P08172); assay: Carbachol-activated Kir3.1/3.4 currents via m2 muscarinic receptor in the same oocytes; assay type: cell-based; conditions: 1 mM, carbachol 1 μM, FIG. 2C
T4 construct: expressed in transfected cells; host or cells: Xenopus laevis oocytes injected with hm2 cRNA (1 ng) together with hP2Y12, Kir3.1 and Kir3.4
T4 sequence (P08172 1-466): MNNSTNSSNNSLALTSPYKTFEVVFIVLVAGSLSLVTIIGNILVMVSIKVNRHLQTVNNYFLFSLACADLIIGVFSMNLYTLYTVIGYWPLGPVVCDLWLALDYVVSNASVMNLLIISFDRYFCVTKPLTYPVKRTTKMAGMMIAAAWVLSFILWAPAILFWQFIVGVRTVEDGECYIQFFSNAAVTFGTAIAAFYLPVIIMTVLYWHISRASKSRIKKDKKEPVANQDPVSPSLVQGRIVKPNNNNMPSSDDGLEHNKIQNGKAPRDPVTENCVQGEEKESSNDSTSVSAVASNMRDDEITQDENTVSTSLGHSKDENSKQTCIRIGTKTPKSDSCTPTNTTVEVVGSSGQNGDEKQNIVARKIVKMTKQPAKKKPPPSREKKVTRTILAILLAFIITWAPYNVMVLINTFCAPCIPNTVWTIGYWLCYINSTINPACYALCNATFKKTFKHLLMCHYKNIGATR
Procedure: as §1
as §3, with “ADP (10 μM), carbachol (1 μM), and pCMBS (1 mM) were applied sequentially to an oocyte expressing both receptors concurrently with Kir3.1 and 3.4. Bars indicate periods of drug application (10 sec).” left out

CSc1nc(N)c2ncn([C@@H]3O[C@H](COP(=O)(O)OP(=O)(O)O)[C@@H](O)[C@H]3O)c2n1 [2MeSADP]
pEC50 (P2Y12 receptor [1]): 9.05
potency compared to ADP (P2Y12 receptor [1]; ratio of EC50s): 2 orders of magnitude

CSc1nc(N)c2ncn([C@@H]3O[C@H](COP(=O)(O)O)[C@@H](O)[C@H]3O)c2n1 [2MeSAMP]
effect on repression of cAMP levels by 1 μM ADP (hP2Y12 [2]; antagonist 50 μM, 10 μM forskolin, FIG. 3B): reversed
effect on forskolin-stimulated cAMP levels in the absence of agonist (hP2Y12 [2]; no agonist): Neither of these antagonists had effects
block of ADP (1 μM) responses (hP2Y12 [3]; antagonist 10 μM, FIG. 2A): reversible block
pIC50 (hP2Y12 [3]; oocytes expressing rat or human P2Y12 (FIG. 2B: hP2Y12), ADP 500 nM, read-out: IC50, block of ADP-induced K+ currents): 5.85
competition of 1 nM [3H]2MeSADP binding to membranes from transfected cells (hP2Y12 [4]; 50 μM): essentially to the level of untransfected cells

Nc1ncnc2c1ncn2[C@@H]1O[C@H](COP(=O)(O)O)[C@@H](OP(=O)(O)O)[C@H]1O [A3P5P]
inhibitory effect on the signal evoked by ADP (rat P2Y12): no inhibitory effect
inhibitory effect on the signal evoked by ADP (hP2Y12 [3]; human P2Y12, FIG. 2A): no inhibitory effect
competition of 1 nM [3H]2MeSADP binding to membranes from transfected cells (hP2Y12 [4]; 300 μM): only little effect

Nc1ncnc2c1ncn2[C@@H]1O[C@H](COP(=O)(O)OP(=O)(O)O)[C@@H](O)[C@H]1O [ADP, adenosine 5′-diphosphate]
pEC50 (P2Y12 receptor [1]): 6.52
maximum reduction of forskolin-stimulated cAMP levels (hP2Y12 [2]; 10 μM ADP, 10 μM forskolin, FIG. 3A): 47%

Nc1ncnc2c1ncn2[C@@H]1O[C@H](COP(O)(=S)OP(=O)(O)OP(=O)(O)O)[C@@H](O)[C@H]1O (stereo partly shown) [ATP-αS]
agonist effect on potassium currents (P2Y12 receptor [5]): weak agonist

O=S(=O)(O)c1cc[c]([Hg][Cl])cc1 [pCMBS, p-chloromercuriphenylsulfonic acid]
effect on activation of the signaling pathway by m2 muscarinic receptors (m2 muscarinic receptor): unaffected
effect on ADP-evoked current responses (hP2Y12 [3]; brief exposure, 1 mM, ADP 10 μM, FIG. 2C): eliminated

pertussis toxin
effect of pretreatment on ADP effects on forskolin-stimulated cAMP (hP2Y12 [2]; 30 ng/ml for 20 hrs, 10 μM ADP, FIG. 3C): abolished
